These results are taken from US11026426B2, “Oxadiazole and phenol derivatives as antibacterial and/or herbicidal agents” (NORTHERN ILLINOIS RESEARCH FOUNDATION, priority 2017, dated 2021).

For orientation: IC50 means the concentration needed to halve the response being measured. For orientation: melting point means the temperature, or range, at which the solid turns liquid.

In data set [1] the target is T1, Mycobacterium tuberculosis IspD (MtIspD) (Mycobacterium tuberculosis, UniProt P9WKG9).
T1 sequence (P9WKG9 1-231): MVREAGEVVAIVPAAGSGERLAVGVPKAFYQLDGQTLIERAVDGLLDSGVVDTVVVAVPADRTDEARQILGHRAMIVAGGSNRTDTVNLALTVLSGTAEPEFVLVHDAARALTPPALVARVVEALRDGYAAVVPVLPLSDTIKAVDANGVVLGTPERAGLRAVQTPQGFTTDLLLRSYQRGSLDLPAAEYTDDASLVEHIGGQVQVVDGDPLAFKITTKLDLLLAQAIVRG
The data set is described as follows: Thermal shift assay against MtIspD. It counts as binding.

In data set [2] the target is Lycopersicon esculentum IspE (LeIspE) (Solanum lycopersicum, UniProt P93841). The data set is described as follows: Thermal shift assay against LeIspE. It counts as binding.
In another data set the test system is lettuce seeds. The data set is described as follows: Lettuce leaf assay. More on the design: key: 0 (no effect); 5(complete inhibition or bleaching). It counts as in vivo. The conditions noted are these: ranking 0-5. The method, boiled down: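 Qualitative assay: compounds in volatile organic solvent applied to filter paper in a petri dish, solvent evaporated, lettuce seeds and 5 mL water added to give test concentrations. Germination, root development and leaf bleaching scored days 3 and 4, ranked 0 (no effect) to 5 (complete inhibition or bleaching).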

The next data set addresses AtIspD (Arabidopsis thaliana, UniProt P69834). The data set is described as follows: University of Hamburg photometric enzymatic inhibition assay AtIspD. Particulars: read-out: AtIspD IC50. It is filed as biochemical. The method, boiled down:
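Coupled photometric assay: 2.4 mU AtIspD with 1 mM (2R,3S)-2,3-dihydroxy-4-oxopentyl phosphate, 2.1 mM CTP, excess IspE (0.4 U), ATP, pyruvate kinase/lactate dehydrogenase and 460 μM NADH. Run in 100 mM Tris-HCl pH 8.0, 10 mM MgCl2, 1 mM DTT, 1.1% DMSO at 27 °C, monitored photometrically.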

The next data set addresses LeIspE (Solanum lycopersicum, UniProt P93841). The data set is described as follows: University of Hamburg photometric enzymatic inhibition assay LeIspE. It counts as biochemical, Lycopersicon esculentum. The conditions noted are these: read-out: LeIspE IC50. In a few lines: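 Photometric coupled assay with pyruvate kinase/lactate dehydrogenase following NADH (460 μM). Mix: 100 mM Tris-HCl pH 8.0, 10 mM MgCl2, 1 mM DTT, 2.5 mM phosphoenolpyruvate, 2 mM ATP, 1 mM 4-diphosphocytidyl-2-C-methylerythritol, 1.1% DMSO, 2.4 mU IspE; incubated at 27° C.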

The next data set concerns the target AtIspF (Arabidopsis thaliana, UniProt Q9CAK8). The data set is described as follows: University of Hamburg photometric enzymatic inhibition assay AtIspF. It is filed as biochemical. The conditions noted are these: read-out: AtIspF IC50. The method, boiled down: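 Coupled photometric assay (CMP kinase/pyruvate kinase/lactate dehydrogenase, NADH consumption) with 2.4 mU AtIspF and 1 mM 4-diphosphocytidyl-2C-methylerythritol 2-phosphate, 2 mM ATP, in 100 mM Tris-HCl pH 8.0, 10 mM MgCl2, 1.1% DMSO. Monitored at 27 °C.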

In data set [3] the test system is Burkholderia thailandensis. It is filed as cell-based. The conditions noted are these: preliminary screening, score 0-3.
The subject of another data set is Mycobacterium smegmatis. The data set is described as follows: Antibacterial preliminary screening MS. Further: key: 0 represents no inhibition; 3 is comparable to commercial antibiotic control. It counts as cell-based. Particulars: score 0-3.
Another data set deals with Corynebacterium xerosis. The data set is described as follows: Antibacterial preliminary screening CX. Further: key: 0 represents no inhibition; 3 is comparable to commercial antibiotic control. It counts as cell-based. Particulars: score 0-3.
Data set [4] concerns Corynebacterium pseudodiphtheriae. The data set is described as follows: Antibacterial preliminary screening CP.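 Further: 0 is no inhibition and 3 matches the commercial antibiotic control.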 It counts as cell-based. The conditions noted are these: score 0-3.
The test system of another data set is Escherichia coli. The data set is described as follows: Antibacterial preliminary screening EC. Further: key: 0 represents no inhibition; 3 is comparable to commercial antibiotic control. It is filed as cell-based. The conditions noted are these: score 0-3.
The next data set has as its system Klebsiella pneumonia. The data set is described as follows: Antibacterial preliminary screening KP. Further: key: 0 represents no inhibition; 3 is comparable to commercial antibiotic control. Particulars: score 0-3. It counts as cell-based.
The next data set has as its system Micrococcus luteus. The data set is described as follows: Antibacterial preliminary screening ML. It is filed as cell-based. The conditions noted are these: score 0-3.
Another data set deals with Bacillus cereus. The data set is described as follows: Antibacterial preliminary screening BC. It counts as cell-based. The conditions noted are these: score 0-3.
A further data set relates to Pseudomonas aeruginosa. The data set is described as follows: Antibacterial preliminary screening PA. It counts as cell-based. The conditions noted are these: for PA score: score 0-3.

Chain of AtIspF (Q9CAK8 53-231): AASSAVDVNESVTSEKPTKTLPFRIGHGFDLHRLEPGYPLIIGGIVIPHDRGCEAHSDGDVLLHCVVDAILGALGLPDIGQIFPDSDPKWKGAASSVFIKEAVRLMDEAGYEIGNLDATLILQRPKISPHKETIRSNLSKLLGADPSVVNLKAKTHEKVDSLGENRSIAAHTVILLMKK
Chain of Lycopersicon esculentum IspE (LeIspE) (P93841 89-401): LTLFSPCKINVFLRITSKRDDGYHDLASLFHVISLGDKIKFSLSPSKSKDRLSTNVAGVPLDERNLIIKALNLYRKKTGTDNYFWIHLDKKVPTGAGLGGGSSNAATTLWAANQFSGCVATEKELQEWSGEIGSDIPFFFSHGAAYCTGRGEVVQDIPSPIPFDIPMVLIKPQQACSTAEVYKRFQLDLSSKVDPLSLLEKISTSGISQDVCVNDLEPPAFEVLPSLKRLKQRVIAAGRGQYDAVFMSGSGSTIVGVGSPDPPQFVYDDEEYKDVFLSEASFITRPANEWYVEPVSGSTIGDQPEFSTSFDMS
Chain of LeIspE (P93841 89-401): as above
Chain of AtIspD (P69834 62-302): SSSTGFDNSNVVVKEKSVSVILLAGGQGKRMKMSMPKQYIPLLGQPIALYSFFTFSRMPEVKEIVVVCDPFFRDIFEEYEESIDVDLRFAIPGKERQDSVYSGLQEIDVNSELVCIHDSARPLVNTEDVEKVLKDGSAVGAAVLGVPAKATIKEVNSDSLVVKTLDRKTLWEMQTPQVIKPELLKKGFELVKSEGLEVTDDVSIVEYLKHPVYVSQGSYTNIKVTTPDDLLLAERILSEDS

The molecule `Cc1nnc(-c2cc3ccccc3[nH]2)o1` [HGN-209, 2-(1H-indol-2-yl)-5-methyl-1,3,4-oxadiazole] yielded a melting point of 232 to 234 °C. Further, in [1], the “MtIspD melting point change” value was 1.5 °C and the MtIspD melting temp was determined as 49.5 °C. Further, in data set [2], the “LeIspE melting point change” value is −2.25 °C and the LeIspE melting temp was found to be 47.25 °C. Further, in the data set on lettuce seeds (0.5 mM), the Bleaching came out at 0, the Germination turned out to be 1 and the “Root Dev.” value is reported as 1. In the data set on lettuce seeds (1.0 mM), the Bleaching came to 0, the Germination was 2 and the “Root Dev.” value is reported as 1. In addition, on AtIspD, the concentration for half-maximal inhibition (IC50) is over 1000 µM. Besides, the IC50 at LeIspE was over 1000 µM. Further, the IC50 at AtIspF was over 1000 µM. The BT score in data set [3] is recorded as 0. Besides, the MS score in the data set on Mycobacterium smegmatis is recorded as 0. This molecule also returned a CX score in the data set with Corynebacterium xerosis of 0. The CP score in data set [4] was 0. The EC score in the data set with Escherichia coli was 0. The molecule also showed a KP score in the data set on Klebsiella pneumonia of 0. The ML score with Micrococcus luteus is given as 0. In addition, the BC score in the data set with Bacillus cereus is recorded as 0. In the data set with Pseudomonas aeruginosa, this molecule registered a PA score of 0.

The molecule `Cc1ccc(-c2nnc(-c3nc4ccccc4s3)o2)cc1` [HGN-338, 2-(benzo[d]thiazol-2-yl)-5-(p-tolyl)-1,3,4-oxadiazole] displayed a melting point of 155 to 160 °C. Also, in [1], the “MtIspD melting point change” value came to 0.0 °C and the MtIspD melting temp was 48.0 °C. For the same molecule, in [2], the “LeIspE melting point change” value is −1.50 °C and the LeIspE melting temp was 48.00 °C. Besides, in the data set with lettuce seeds (0.15 mM), the Bleaching worked out at 0, the Germination was 0 and the “Root Dev.” value is reported as 0. In the data set with lettuce seeds (0.3 mM), the Bleaching came out at 0, the Germination was 1 and the “Root Dev.” value is 0. Also, at AtIspD, the half-inhibitory concentration (IC50) was over 500 µM. Moreover, at LeIspE, the IC50 was over 500 µM. For the same molecule, the IC50 on AtIspF is over 500 µM. The BT score in data set [3] was determined as 0. The molecule also gave an MS score in the data set with Mycobacterium smegmatis of 0. Also, the CX score with Corynebacterium xerosis is 0. The molecule further showed a CP score in data set [4] of 0. In the data set with Escherichia coli, this molecule gave an EC score of 0. Moreover, the KP score in the data set with Klebsiella pneumonia came out at 0. The molecule further came in with an ML score in the data set with Micrococcus luteus of 0. In the data set with Bacillus cereus, this molecule had a BC score of 0. In the data set on Pseudomonas aeruginosa, this molecule yielded a PA score of 0.

Molecule `Clc1ccc(-c2nnc(-c3nc4ccccc4s3)o2)cc1` [HGN-339, 2-(benzo[d]thiazol-2-yl)-5-(4-chlorophenyl)-1,3,4-oxadiazole] displayed a melting point of 161 to 163 °C. Besides, in data set [1], the “MtIspD melting point change” value amounted to 1.3 °C and the MtIspD melting temp turned out to be 49.3 °C. In addition, in data set [2], the “LeIspE melting point change” value was −2.00 °C and the LeIspE melting temp came to 47.50 °C. Further, in the data set on lettuce seeds (0.15 mM), the Bleaching amounted to 0, the Germination is 0 and the “Root Dev.” value is 0. Further, in the data set on lettuce seeds (0.3 mM), the Bleaching was 0, the Germination amounted to 0 and the “Root Dev.” value was 0. Besides, the half-maximal inhibitory concentration (IC50) on AtIspD was 158 µM. Moreover, the IC50 on LeIspE was over 500 µM. Moreover, the IC50 on AtIspF was over 500 µM. The same molecule gave a BT score in data set [3] of 0. In the data set on Mycobacterium smegmatis, this molecule came in with an MS score of 0. In addition, the CX score with Corynebacterium xerosis is on record as 0. Further, the CP score in [4] was 0. For the same molecule, the EC score in the data set with Escherichia coli was 0. Besides, in the data set on Klebsiella pneumonia, the KP score is 0. The molecule also showed an ML score with Micrococcus luteus of 0. In the data set with Bacillus cereus, the BC score was found to be 0. This molecule gave a PA score in the data set with Pseudomonas aeruginosa of 0.

Regarding `c1ccc(CCc2nnc(-c3cc4ccccc4[nH]3)o2)cc1` [HGN-215, 2-(1H-indol-2-yl)-5-phenethyl-1,3,4-oxadiazole], the melting point is 161 to 164 °C. Moreover, in [1], the “MtIspD melting point change” value is 0.8 °C and the MtIspD melting temp amounted to 48.8 °C. Besides, in [2], the “LeIspE melting point change” value was −2.00 °C and the LeIspE melting temp is 47.50 °C. Further, in the data set on lettuce seeds (0.15 mM), the Bleaching is 0, the Germination stood at 0 and the “Root Dev.” value amounted to 0. For the same molecule, in the data set with lettuce seeds (0.3 mM), the Bleaching came out at 0, the Germination came out at 0 and the “Root Dev.” value was found to be 0. In addition, the IC50 at AtIspD was over 1000 µM. In addition, the 50% inhibitory concentration (IC50) on LeIspE came out at 430 ± 48 µM. Moreover, the IC50 on AtIspF was over 1000 µM. This molecule registered a BT score in data set [3] of 0. Further, the MS score in the data set with Mycobacterium smegmatis is 0. This molecule also had a CX score with Corynebacterium xerosis of 0. The CP score in data set [4] came out at 0. In the data set with Escherichia coli, this molecule displayed an EC score of 0. Moreover, the KP score in the data set with Klebsiella pneumonia turned out to be 0. Besides, in the data set on Micrococcus luteus, the ML score was 0. For the same molecule, the BC score with Bacillus cereus worked out at 0. This molecule also displayed a PA score in the data set on Pseudomonas aeruginosa of 0.

`Oc1c(Br)cc(Br)cc1-c1cc2ccccc2[nH]1` [HGN-340, 2,4-dibromo-6-(1H-indol-2-yl)phenol]: the melting point was 104 to 110 °C. Further, in data set [1], the “MtIspD melting point change” value stood at 1.3 °C and the MtIspD melting temp was 49.3 °C. Further, in [2], the “LeIspE melting point change” value was found to be 0.50 °C and the LeIspE melting temp amounted to 50.00 °C. In the data set with lettuce seeds (0.15 mM), the Bleaching is on record as 0, the Germination turned out to be 0 and the “Root Dev.” value was determined as 0. In the data set on lettuce seeds (0.3 mM), the Bleaching is on record as 0, the Germination amounted to 0 and the “Root Dev.” value was found to be 0. Further, at AtIspD, the IC50 came to 50 µM. Also, the concentration for half-maximal inhibition (IC50) at LeIspE is over 500 µM. For the same molecule, the IC50 at AtIspF amounted to 470 ± 116 µM. In addition, the BT score in data set [3] stood at 0. Besides, in the data set on Mycobacterium smegmatis, the MS score is 0. Besides, the CX score in the data set with Corynebacterium xerosis came to 0. The CP score in data set [4] stood at 0. The molecule further gave an EC score in the data set with Escherichia coli of 0. In the data set on Klebsiella pneumonia, this molecule registered a KP score of 0. Also, in the data set on Micrococcus luteus, the ML score amounted to 0. Besides, the BC score in the data set with Bacillus cereus is 2. In the data set on Pseudomonas aeruginosa, the “effectiveness against Pseudomonas aeruginosa” value is listed as “moderately effective” and the PA score is reported as 0.

`CCc1nnc(-c2cc3ccccc3[nH]2)o1` [HGN-250, 2-ethyl-5-(1H-indol-2-yl)-1,3,4-oxadiazole]: the melting point lay in the range of 138 to 143 °C. In data set [1], the “MtIspD melting point change” value turned out to be 0.8 °C and the MtIspD melting temp was 48.8 °C. In data set [2], the “LeIspE melting point change” value was −2.75 °C and the LeIspE melting temp came out at 46.75 °C. Besides, in the data set with lettuce seeds (0.5 mM), the Bleaching came to 0, the Germination was determined as 1 and the “Root Dev.” value is recorded as 0. Also, in the data set on lettuce seeds (1.0 mM), the Bleaching is 0, the Germination is 3 and the “Root Dev.” value is given as 0. Besides, the IC50 at AtIspD was over 1000 µM. Also, the concentration for half-maximal inhibition (IC50) at LeIspE was over 1000 µM. On AtIspF, the IC50 is over 1000 µM. For the same molecule, the BT score in data set [3] stood at 0. The molecule also showed an MS score in the data set with Mycobacterium smegmatis of 0. This molecule returned a CX score in the data set on Corynebacterium xerosis of 0. This molecule also showed a CP score in data set [4] of 0. Also, the EC score in the data set on Escherichia coli is on record as 0. The same molecule displayed a KP score with Klebsiella pneumonia of 0. Further, in the data set with Micrococcus luteus, the ML score is 0. Besides, the BC score in the data set on Bacillus cereus was 0. Also, in the data set with Pseudomonas aeruginosa, the PA score came to 0.
